Reference: ChEMBL document CHEMBL5042526, “Design, Synthesis, and Biological Evaluation of Triazolone Derivatives as Potent PPARα/δ Dual Agonists for the Treatment of Nonalcoholic Steatohepatitis” (J Med Chem, 2022)
The source made the active and inactive calls. The calls are words filed in the database; no cut-off is given here.

Assays:
[1] = tested on: Mus musculus; assay: Anti-NASH activity in HF-CDAA-induced nonalcoholic steatohepatitis C57BL/6JNifdc mouse model assessed as decrease in level of serum AST 10 mg/kg, po by automatic biochemical analysis; format: functional, organism-based
[2] = tested on: Mus musculus; assay: In vivo agonist activity at PPARalpha/delta assessed as upregulation of Cpt2 mRNA expression in C57BL/6Nifdc mouse liver at 10 mg/kg, po for 4 days; format: functional, organism-based; conditions: time 4.0 day
[3] = tested on: C2C12; assay: Agonist activity against PPARalpha/delta (unknown origin) assessed as upregulation of Cpt1A mRNA expression in […] cells incubated for 12 hrs by RT-PCR analysis; format: cell-based; conditions: filed as agonist, dose 8-200 nM
[4] = tested on: Mus musculus; assay: In vivo agonist activity at PPARalpha/delta assessed as upregulation of Acadm-mRNA expression in C57BL/6Nifdc mouse liver at 10 mg/kg, po for 4 days; format: functional, organism-based; conditions: time 4.0 day
[5] = tested on: Mus musculus; assay: Anti-inflammatory activity in HF-CDAA-induced nonalcoholic steatohepatitis C57BL/6JNifdc mouse model assessed as decrease in Tnf mRNA expression at 10 mg/kg, po; format: functional, organism-based
[6] = tested on: Mus musculus; assay: Anti-NASH activity in HF-CDAA-induced nonalcoholic steatohepatitis C57BL/6JNifdc mouse model assessed as reduction in steatosis by measuring hepatic triglyceride level at 3 to 30 mg/kg, po; format: functional, organism-based; conditions: dose 3-30 mg/kg
[7] = tested on: Mus musculus; assay: Anti-inflammatory activity in HF-CDAA-induced nonalcoholic steatohepatitis C57BL/6JNifdc mouse model assessed as decrease in Ccl4 mRNA expression at 10 mg/kg, po; format: functional, organism-based
[8] = tested on: Mus musculus; assay: In vivo agonist activity at PPARalpha/delta assessed as upregulation of -Ehhadh mRNA expression in C57BL/6Nifdc mouse liver at 10 mg/kg, po for 4 days; format: functional, organism-based; conditions: time 4.0 day
[9] = target: T1, Peroxisome proliferator-activated receptor delta (Mus musculus, UniProt P35396); assay: Agonist activity at mouse PPARdelta in Cos7 cells transfected with pBIND and pGL4.35 Gal4 UAS Luc reporter plasmid by measuring luciferase activity incubated for 16 hrs by luciferase reporter gene assay
T1 sequence (P35396 whole entry): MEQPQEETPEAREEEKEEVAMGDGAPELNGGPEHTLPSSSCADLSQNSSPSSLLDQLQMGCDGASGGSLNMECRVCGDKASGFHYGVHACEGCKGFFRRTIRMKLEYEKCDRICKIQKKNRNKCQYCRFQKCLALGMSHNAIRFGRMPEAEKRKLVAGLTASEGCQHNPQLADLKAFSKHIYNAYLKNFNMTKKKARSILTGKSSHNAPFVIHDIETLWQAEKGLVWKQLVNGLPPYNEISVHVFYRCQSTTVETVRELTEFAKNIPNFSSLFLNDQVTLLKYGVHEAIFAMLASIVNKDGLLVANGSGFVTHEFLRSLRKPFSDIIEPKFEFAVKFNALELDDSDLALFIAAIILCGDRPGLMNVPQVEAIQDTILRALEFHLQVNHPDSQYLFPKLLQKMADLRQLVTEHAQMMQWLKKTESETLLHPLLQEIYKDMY

[10] = tested on: HepG2; assay: Agonist activity against PPARalpha/delta (unknown origin) assessed as upregulation of PDK4 mRNA expression in human HepG2 cells incubated for 12 hrs by RT-PCR analysis; format: cell-based; conditions: filed as agonist, dose 8-200 nM
[11] = target: T2, Peroxisome proliferator-activated receptor alpha (Mus musculus, UniProt P23204); assay: Agonist activity at mouse PPARalpha transfected in Cos7 cells co-expressing with pBIND and pGL4.35 Gal4 UAS Luc reporter plasmid by measuring luciferase activity incubated for 16 hrs by luciferase reporter gene assay
T2 sequence (P23204 whole entry): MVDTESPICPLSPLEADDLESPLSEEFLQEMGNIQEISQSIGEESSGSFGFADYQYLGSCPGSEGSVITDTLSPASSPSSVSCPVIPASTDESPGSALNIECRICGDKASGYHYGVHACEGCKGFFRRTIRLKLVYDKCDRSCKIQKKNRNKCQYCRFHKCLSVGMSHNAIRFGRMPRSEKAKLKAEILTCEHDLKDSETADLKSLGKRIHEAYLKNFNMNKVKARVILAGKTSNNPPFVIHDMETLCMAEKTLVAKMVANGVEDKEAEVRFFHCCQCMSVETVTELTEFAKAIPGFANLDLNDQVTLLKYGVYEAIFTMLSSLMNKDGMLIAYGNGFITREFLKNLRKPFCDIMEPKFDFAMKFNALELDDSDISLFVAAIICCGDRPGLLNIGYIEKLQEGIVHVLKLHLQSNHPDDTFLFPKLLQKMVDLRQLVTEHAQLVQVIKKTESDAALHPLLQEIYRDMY

[12] = tested on: Mus musculus; assay: In vivo agonist activity against PPARalpha/delta assessed as upregulation of Ugt1a9 mRNA expression in C57BL/6Nifdc mouse liver at 10 mg/kg, po for 4 days; format: functional, organism-based; conditions: time 4.0 day
[13] = tested on: AML12; assay: Agonist activity against PPARalpha/delta (unknown origin) assessed as upregulation of Cpt1A mRNA expression in […] cells at 8 nM incubated for 12 hrs by RT-PCR analysis; format: cell-based; conditions: filed as agonist
[14] = tested on: Mus musculus; assay: In vivo agonist activity against PPARalpha/delta assessed as upregulation of Plin5 mRNA expression in C57BL/6Nifdc mouse skeletal muscle at 10 mg/kg, po for 4 days; format: functional, organism-based; conditions: time 4.0 day
[15] = tested on: Mus musculus; assay: In vivo agonist activity at PPARalpha/delta assessed as upregulation of Akr1c18 mRNA expression in C57BL/6Nifdc mouse liver at 10 mg/kg, po for 4 days; format: functional, organism-based; conditions: time 4.0 day
[16] = tested on: THP-1; assay: Anti-inflammatory activity in human THP1-derived macrophages assessed as decrease in secretion of LPS-induced TNF-alpha level at 8 to 200 nM for 12 hrs by ELISA kit method; format: functional, cell-based; conditions: dose 8-200 nM
[17] = tested on: Mus musculus; assay: In vivo agonist activity against PPARalpha/delta assessed as upregulation of Cpt2 mRNA expression in C57BL/6Nifdc mouse skeletal muscle at 10 mg/kg, po for 4 days; format: functional, organism-based; conditions: time 4.0 day
[18] = tested on: Mus musculus; assay: Anti-fibrosis effect in CCl4 induced liver fibrosis C57BL/6JNifdc mouse model assessed as downregulation of Col1a1 expression at 3 to 30 mg/kg, po after 20 hrs by Western blot analysis; format: functional, organism-based; conditions: dose 3-30 mg/kg
[19] = tested on: Mus musculus; assay: In vivo agonist activity against PPARalpha/delta assessed as upregulation of Nfkbia-mRNA expression in C57BL/6Nifdc mouse skeletal muscle at 10 mg/kg, po for 4 days; format: functional, organism-based; conditions: time 4.0 day
[20] = tested on: Mus musculus; assay: In vivo agonist activity against PPARalpha/delta assessed as upregulation of Me1 mRNA expression in C57BL/6Nifdc mouse liver at 10 mg/kg, po for 4 days; format: functional, organism-based; conditions: time 4.0 day
[21] = tested on: Mus musculus; assay: In vivo agonist activity at PPARalpha/delta assessed as upregulation of […] mRNA expression in C57BL/6Nifdc mouse liver at 10 mg/kg, po for 4 days; format: functional, organism-based; conditions: time 4.0 day
[22] = tested on: Mus musculus; assay: Anti-fibrosis effect in CCl4 induced liver fibrosis C57BL/6JNifdc mouse model assessed as decrease in level of hydroxyproline level at 3 to 30 mg/kg, po after 20 hrs […]; format: functional, organism-based; conditions: dose 3-30 mg/kg
[23] = tested on: Mus musculus; assay: In vivo agonist activity against PPARalpha/delta assessed as upregulation of -Cidea mRNA expression in C57BL/6Nifdc mouse skeletal muscle at 10 mg/kg, po for 4 days; format: functional, organism-based; conditions: time 4.0 day

For `Cc1cc(Cn2ncn(-c3ccc(OC(F)(F)F)cc3)c2=O)cc(C)c1OC(C)(C)C(=O)O`, the Activity [1] was “Active”, the Activity [2] was “Active” and the Activity [3] was “Dose-Dependent Effect”. For the same molecule, the Activity [4] was “Active”, the Activity [5] was “Active” and the Activity [6] was “Active”. The Activity [7] was “Active”, the Activity [8] was “Active” and the EC50 [9] was 19.7 nM. The Activity [10] was “Dose-Dependent Effect”, the EC50 [11] was 16.8 nM and the Activity [12] was “Active”. For the same molecule, the Activity [13] was “Active”, the Activity [14] was “Active” and the Activity [15] was “Active”. The Activity [16] was “Active”, the Activity [17] was “Active” and the Activity [18] was “Active”. The Activity [19] was “Active”, the Activity [20] was “Active” and the Activity [21] was “Active”. The Activity [22] was “Active” and the Activity [23] was “Active”.
